Reference: the supplement of paper PMC10949913

Legend:
Conditions in all cases: 48 h
CU-ACC2 [1] = experiment: AC50 viability; higher = less potent
Summary of the method: (§1)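 Three adrenocortical carcinoma cell lines were seeded at 500–1,000 cells/well in 5 µL medium in 1,536-well plates. 23 nL of each MIPE 5.0 library compound was added at 11 concentrations. After 48 h (per the protocol name), CellTiter-Glo was added for 15 minutes at room temperature and luminescence was read. Signals were normalised per plate to vehicle and empty-well controls. AC50 and area under the curve came from fitted concentration-response curves, keeping only inhibitory or non-responding curve classes.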

NCI-H295R [2] = experiment: AC50 viability; higher = less potent
Summary of the method: as §1

CU-ACC1 [3] = experiment: area under concentration-response curve (viability) (AUC (a.u.)); higher = less active
Summary of the method: as §1

CU-ACC2 [4] = experiment: as above
Summary of the method: as §1

NCI-H295R [5] = experiment: as above
Summary of the method: as §1

CU-ACC1 [6] = experiment: AC50 viability; higher = less potent
Summary of the method: as §1

Row | Structure (SMILES) | AC50 viability (CU-ACC2 [1]) [µM] | AC50 viability (NCI-H295R [2]) [µM] | area under concentration-response curve (CU-ACC1 [3]) | area under concentration-response curve (CU-ACC2 [4]) | area under concentration-response curve (NCI-H295R [5]) | AC50 viability (CU-ACC1 [6]) [µM]
1 | Cc1ccc(C(=O)Nc2ccc(CN3CCN(C)CC3)c(C(F)(F)F)c2)cc1C#Cc1cnc2[nH]ncc2c1 | 8.33 | 8.33 | 441 | 427 | 392 | –
2 | Cc1ccc(C(=O)OCc2ccc([C@@H](CN)C(=O)Nc3ccc4cnccc4c3)cc2)c(C)c1 | 9.11 | 12.9 | 507 | 591 | 534 | –
3 | O=C(CC12CC3CC(CC(C3)C1)C2)Nc1cccc2nc(NCCNCCO)ccc12 | 23.5 | – | 473 | 537 | – | 26.3
4 | CN1CCN(c2ccc(C(=O)Nc3n[nH]c4ccc(Cc5cc(F)cc(F)c5)cc34)c(NC3CCOCC3)c2)CC1 | 5.25 | 5.9 | 470 | 470 | 434 | –
5 | C[S+]([O-])c1ccc(-c2nc(-c3ccc(F)cc3)c(-c3ccncc3)[nH]2)cc1 (centres undefined) | 16.6 | – | 393 | 420 | – | 18.6
6 | CC/C(=C(/c1ccc(O)cc1)c1ccc(OCCNC)cc1)c1ccccc1 | 9.34 | 7.42 | 393 | 403 | 359 | –
7 | CN1C(=O)c2sccc2N(C)c2nc(Nc3ccc([S+](N)(=O)[O-])cc3)ncc21 | 14.8 | 5.25 | 460 | 467 | 431 | –
8 | COc1cc2c(cc1OC(C)C)[C@H](c1ccc(Cl)cc1)N(c1ccc(N(C)C[C@H]3CC[C@H](N4CCN(C)C(=O)C4)CC3)cc1)C(=O)C2 | 20.9 | – | 427 | 510 | – | 16.6
9 | Oc1ccc2ccccc2c1SSc1c(O)ccc2ccccc12 | 23.5 | – | 487 | 583 | – | 41.7
10 | CC(C)(C)C(=O)OCOP(=O)(COCCn1cnc2c(N)ncnc21)OCOC(=O)C(C)(C)C | 7.42 | – | 456 | 527 | – | 8.33
11 | CC(C)Nc1cc(-c2c[nH]c(C(=O)N[C@H](CO)c3cccc(Cl)c3)c2)c(Cl)cn1 | 18.6 | – | 467 | 545 | – | 23.5
12 | Cc1nc([C@](C)(O)CO)sc1-c1cnc(N)c(O[C@H](C)c2cc(F)ccc2-n2nccn2)c1 | 1.86 | 2.63 | 480 | 520 | 421 | –
13 | COc1ccc([S+](=O)([O-])N(C(C)=O)c2ccccc2/C=C/c2cc[n+]([O-])cc2)cc1 | 20.9 | 5.25 | 482 | 557 | 506 | –
14 | C[C@@H]1CC[C@@]2(CC[C@]3(C)\C(=C/C[C@@H]4[C@@]5(C)C[C@@H](O)[C@H](O)[C@@](C)(CO)[C@@H]5CC[C@@]34C)[C@@H]2[C@H]1C)C(O)=O | 1.18 | 2.35 | 371 | 410 | 354 | –
